This assay addresses T1, MEK1^CA (human GST-MEK1, constitutively active, Ser218Asp and Ser222Asp) (Homo sapiens, UniProt Q02750, S218D/S222D).
T1 construct: GST; made in house; host or cells: Escherichia coli
The assay is described as follows: MEK1 enzymatic activity assay (MEK1^CA / ERK2 / MBP, [γ-33P]ATP incorporation). Format: biochemical. Summed up: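 Cascade assay: 25 µl reactions with 0.002 nmol E. coli-expressed GST-MEK1 S218D/S222D, 0.02 nmol His-tagged mouse ERK2, 0.25 nmol MBP, 0.25 nmol unlabeled ATP and 0.1 µCi [γ-33P]ATP. Compound preincubated 30 min at ambient temperature with MEK1/ERK2; stopped with TCA, 33P-labelled protein filter-captured and scintillation-counted.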

[1] abbreviates: Table 1, compounds of formula I, read-out: Avg IC50.
Setting [2] is: Table 4, R' is (CH2)1 or 2-G, read-out: IC50.
The mark [3] stands for this setting: Table 2, Ar1-A contains an amido or indolo group, read-out: IC 50.

SMILES strings stand for the structures. Where two headings read alike, the source gives them in different places.

T1 sequence (Q02750 whole entry S218D/S222D): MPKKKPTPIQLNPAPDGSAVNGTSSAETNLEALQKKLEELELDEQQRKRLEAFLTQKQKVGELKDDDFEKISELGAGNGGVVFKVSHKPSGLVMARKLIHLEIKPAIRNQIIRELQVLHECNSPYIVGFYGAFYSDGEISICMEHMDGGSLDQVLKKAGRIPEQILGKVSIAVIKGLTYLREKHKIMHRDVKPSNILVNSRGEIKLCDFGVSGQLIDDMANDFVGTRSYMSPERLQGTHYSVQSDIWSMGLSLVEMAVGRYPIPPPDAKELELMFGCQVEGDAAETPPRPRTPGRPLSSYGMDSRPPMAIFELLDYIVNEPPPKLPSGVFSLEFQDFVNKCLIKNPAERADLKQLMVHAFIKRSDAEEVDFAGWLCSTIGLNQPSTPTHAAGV

`N=C(NCc1ccccc1)c1c(O)nsc1Nc1ccc(Oc2cc(F)cc(F)c2)cc1` [compound 424]: under setting [1], the IC50 lay within 1 to 100 nM.

Turning to `N=C(NCC(O)c1cccc(O)c1)c1c(O)nsc1Nc1ccc(Oc2ccccc2)cc1` (stereo not shown) [compound 166], under setting [1], the IC50 fell in the range of 1 to 100 nM.

As for `N=C(NCC(O)CO)c1c(O)nsc1Nc1cc(C(F)(F)F)cc(C(F)(F)F)c1` (stereo not shown) [compound 67], the IC50 under setting [1] was over 500 nM.

As to `N=C(NCC1CCCCC1)c1c(O)nsc1Nc1ccc(N2CCOCC2)nc1` [compound 132], the IC50 under setting [1] is over 500 nM.

Consider `N=C(NCc1ccccc1)c1c(O)nsc1Nc1ccc(C(=O)c2ccccc2)cc1`, for which the IC50 under setting [2] was in the range of 100 to 500 nM.

For the molecule `N=C(NCCCCO)c1c(O)nsc1Nc1ccc(C(=O)Nc2ccccc2)cc1` [E-6], the IC50 under setting [3] was over 1000 nM.

As to `CC(C)NC(=N)c1c(O)nsc1Nc1ccc(Oc2cc(F)cc(F)c2Cl)c(F)c1` [compound 328], the IC50 under setting [1] fell in the range of 1 to 100 nM.

As to `N=C(NCCCO)c1c(O)nsc1Nc1ccc(Oc2ccccc2)cc1` [compound 31], the IC50 under setting [1] lay in the range of 1 to 100 nM.

Regarding `N=C(NCCCN1CCCC1=O)c1c(O)nsc1Nc1ccc(Oc2ccccc2)cc1` [compound 39], the IC50 under setting [1] is 1 to 100 nM.

For `N=C(NCCN1CCNCC1)c1c(O)nsc1Nc1ccc(Oc2cc(F)cc(F)c2)cc1` [drawing 829], the IC50 under setting [2] lay in the range of 1 to 100 nM.

`Cc1ccc(S(=O)(=O)NC(=N)c2c(O)nsc2Nc2ccc(Oc3ccccc3)cc2)cc1` [compound 151]: the IC50 under setting [1] was over 500 nM.

For the molecule `CC(C)NC(=N)c1c(O)nsc1Nc1ccc(Oc2ccccc2Br)cc1` [compound 293], the IC50 under setting [1] was in the range of 1 to 100 nM.

On to `CN1CCN(C(=N)c2c(O)nsc2Nc2ccc(Oc3cc(F)cc(F)c3)cc2)CC1` [compound 419], for which, under setting [1], the IC50 was over 500 nM.

With `N=C(NCC1CCCCC1)c1c(O)nsc1Nc1ccc(Oc2ccc(F)cc2)cc1` [compound 142], under setting [1], the IC50 was in the range of 1 to 100 nM.

On to `Cc1ccc(Oc2ccc(Nc3snc(O)c3C(=N)NC(C)C)cc2)cn1` [compound 259], for which the IC50 under setting [1] was over 500 nM.

For `CC(CO)NC(=N)c1c(O)nsc1Nc1ccc(Oc2cc(C(F)(F)F)ccc2Cl)cc1F` (stereo not shown) [compound 394], the IC50 under setting [1] lay within 1 to 100 nM.

`Cc1cc(Oc2cccc(C(F)(F)F)c2)ccc1Nc1snc(O)c1C(=N)NC(C)CO` (stereo not shown) [compound 438]: the IC50 under setting [1] is 1 to 100 nM.

In the case of `Cc1ccccc1Oc1ccc(Nc2snc(O)c2C(=N)NC(C)CO)cc1` (stereo not shown) [compound 300], the IC50 under setting [1] lay within 1 to 100 nM.

`CC(CO)NC(=N)c1c(O)nsc1Nc1ccc(Oc2cc(F)ccc2Cl)c(F)c1` (stereo not shown) [compound 322]: under setting [1], the IC50 fell in the range of 1 to 100 nM.

Regarding `Cc1cccc(Cl)c1Oc1ccc(Nc2snc(O)c2C(=N)NC(C)CO)cc1` (stereo not shown) [compound 343], under setting [1], the IC50 is over 500 nM.

`N=C(NCC(O)CO)c1c(O)nsc1Nc1ccc(C(=O)N2CCc3ccccc32)cc1` (stereo not shown) [E-12]: the IC50 under setting [3] was in the range of 200 to 1000 nM.

For `Cc1cccc(Oc2ccc(Nc3snc(O)c3C(=N)NC(C)CO)cc2)c1C` (stereo not shown) [compound 346], the IC50 under setting [1] was 1 to 100 nM.

With `CC(C)NC(=N)c1c(O)nsc1Nc1ccc(S(=O)(=O)c2ccccc2)cc1` [compound 244], the IC50 under setting [1] is over 500 nM.

Turning to `COc1cccc(F)c1Oc1ccc(Nc2snc(O)c2C(=N)NC(C)CO)cc1` (stereo not shown) [compound 281], under setting [1], the IC50 was in the range of 100 to 500 nM.

As for `CCOC(=O)c1cccc(Nc2snc(O)c2C(=N)NCC(O)O)c1` [compound 498], the IC50 under setting [1] was in the range of 100 to 500 nM.

In the case of `Cc1ccc(Nc2snc(O)c2C(=N)NN2CCOCC2)cc1` [Cpd 5], the IC50 under setting [1] fell in the range of 100 to 500 nM.

In the case of `Cc1cc(C)cc(Oc2ccc(Nc3snc(O)c3C(=N)NC(C)CO)cc2)c1` (stereo not shown) [compound 268], the IC50 under setting [1] lay in the range of 100 to 500 nM.

As for `N=C(NCC1CCCCC1)c1c(O)nsc1Nc1ccc(C(=O)c2ccccc2)cc1` [compound 104], the IC50 under setting [1] is 100 to 500 nM.

Turning to `Cc1cccc(Oc2ccc(Nc3snc(O)c3C(=N)NC(C)C)cc2)c1` [compound 291], the IC50 under setting [1] was in the range of 1 to 100 nM.

Regarding `CC(=O)Oc1nsc(Nc2ccc(Oc3ccccc3)cc2)c1C(=N)NC(C)C` [compound 185], the IC50 under setting [1] lay within 100 to 500 nM.

For the molecule `Cc1cc(Oc2cc(F)cc(F)c2)ccc1Nc1snc(O)c1C(=N)NC(C)C` [compound 457], the IC50 under setting [1] fell in the range of 1 to 100 nM.

As for `CC(C)NC(=N)c1c(O)nsc1Nc1ccc(Cl)nc1` [compound 264], the IC50 under setting [1] was over 500 nM.

For `CCC(CO)NC(=N)c1c(O)nsc1Nc1ccc(Oc2cc(F)cc(F)c2)cc1C` (stereo not shown) [compound 468], the IC50 under setting [1] was in the range of 1 to 100 nM.

Consider `N=C(NCc1ccccn1)c1c(O)nsc1Nc1ccc(Oc2cc(Cl)ccc2Cl)cc1` [compound 448], for which, under setting [1], the IC50 was 1 to 100 nM.

Turning to `CC(C)c1ccc(Nc2snc(O)c2C(N)=NCC2CCCCC2)cc1` [compound 80], the IC50 under setting [1] is over 500 nM.

As to `Cc1cc(Oc2cccc(F)c2F)ccc1Nc1snc(O)c1C(=N)NO` [compound 500], the IC50 under setting [1] was 1 to 100 nM.

As for `N=C(NCCO)c1c(O)nsc1Nc1ccc(I)cc1` [compound 217], the IC50 under setting [1] was over 500 nM.

On to `CC(C)NC(=N)c1c(O)nsc1Nc1ccc(O)c(Cl)c1` [compound 243], for which the IC50 under setting [1] is 100 to 500 nM.

With `N=C(NCCN1CCOCC1)c1c(Nc2ccc(Oc3ccccc3)cc2)s[nH]c1=O` [compound 54], the IC50 under setting [1] lay in the range of 100 to 500 nM.

Take `Cc1cc(Oc2ccccc2)ccc1Nc1snc(O)c1C(=N)NC(C)C` [compound 334]: the IC50 under setting [1] lay in the range of 1 to 100 nM.

For `Oc1nsc(Nc2ccc(Oc3ccccc3)cc2)c1-c1noc(-c2ccccc2)n1` [compound 149], under setting [1], the IC50 is over 500 nM.

For the molecule `COc1ccc(Nc2snc(O)c2C(=N)NCC2CCCCC2)cn1` [compound 77], the IC50 under setting [1] was in the range of 1 to 100 nM.

Consider `N=C(NCCc1ccc(O)cc1)c1c(O)nsc1NCCc1ccc(O)cc1` [compound 114], for which, under setting [1], the IC50 is over 500 nM.

Consider `Cc1cccc(Cl)c1Oc1ccc(Nc2snc(O)c2C(=N)NC(C)C)cc1` [compound 344], for which the IC50 under setting [1] is over 500 nM.

Turning to `C[C@H](NC(=N)c1c(O)nsc1Nc1ccc(Oc2ccccc2)cc1)[C@@H](O)c1ccccc1` [compound 159], the IC50 under setting [1] lay in the range of 1 to 100 nM.

For the molecule `N=C(NO)c1c(O)nsc1Nc1ccc(Oc2cc(Cl)ccc2Cl)cc1` [compound 450], the IC50 under setting [1] lay in the range of 1 to 100 nM.

Turning to `CC(CO)NC(=N)c1c(O)nsc1Nc1ccc(Oc2ccc(C(F)(F)F)cc2)c(Cl)c1` (stereo not shown) [compound 396], the IC50 under setting [1] was in the range of 100 to 500 nM.

`N=C(NCC(O)CO)c1c(O)nsc1Nc1ccc([C@H]2CC[C@H](O)CC2)cc1` (stereo partly shown) [compound 196]: the IC50 under setting [1] is over 500 nM.

`CC(CO)NC(=N)c1c(O)nsc1Nc1ccc(Oc2ccccc2F)c(F)c1` (stereo not shown) [compound 303]: the IC50 under setting [1] was 1 to 100 nM.

As to `N=C(NCC1CCCCC1)c1c(O)nsc1Nc1cccc([N+](=O)[O-])c1` [compound 82], under setting [1], the IC50 lay within 100 to 500 nM.

As for `CC(C)NC(=N)c1c(O)nsc1Nc1ccc(Cl)cc1Cl` [compound 225], the IC50 under setting [1] lay in the range of 1 to 100 nM.

For `CCCC1CCC(c2ccc(Nc3snc(O)c3C(=N)NCC3CCCCC3)cc2)CC1` (stereo not shown) [compound 58], the IC50 under setting [1] is over 500 nM.

`CC(CO)NC(=N)c1c(O)nsc1Nc1ccc(/C=C/c2ccccc2)cc1` (stereo not shown) [compound 240]: under setting [1], the IC50 fell in the range of 100 to 500 nM.

Consider `COc1cccc(F)c1Oc1ccc(Nc2snc(O)c2C(=N)NC(C)C)cc1` [compound 270], for which, under setting [1], the IC50 is over 500 nM.

Regarding `CC(CO)NC(=N)c1c(O)nsc1Nc1ccc(/N=N/c2ccccc2)cc1` (stereo not shown) [compound 219], the IC50 under setting [1] was 1 to 100 nM.

On to `CC(C)NC(=N)c1c(O)nsc1Nc1ccc(Oc2ccccc2F)cc1` [compound 356], for which the IC50 under setting [1] was 1 to 100 nM.

For the molecule `CC(C)NC(=N)c1c(O)nsc1Nc1ccc(Oc2cccc(Cl)c2F)cc1` [compound 366], under setting [1], the IC50 fell in the range of 1 to 100 nM.

As for `CCC[C@H]1CC[C@H](c2ccc(Nc3snc(O)c3C(=N)NCCO)cc2)CC1` [compound 161], the IC50 under setting [1] was over 500 nM.

Take `Cc1cc(Oc2cc(F)cc(F)c2)ccc1Nc1snc(O)c1C(=N)NCC(O)CO` (stereo not shown) [compound 466]: the IC50 under setting [1] is 1 to 100 nM.

As to `N=C(NCC(O)O)c1c(O)nsc1Nc1ccc(Oc2ccc(F)cc2)c(Br)c1` [compound 208], under setting [1], the IC50 is over 500 nM.

Turning to `CC(CO)NC(=N)c1c(O)nsc1Nc1cc(F)c(Oc2cc(Cl)ccc2Cl)cc1F` (stereo not shown) [compound 476], the IC50 under setting [1] is 1 to 100 nM.

On to `CC(C)NC(=N)c1c(O)nsc1Nc1ccc(C(=O)N2CCN(C)CC2)cc1` [E-19], for which the IC50 under setting [3] was over 1000 nM.

`CC(C)NC(=N)c1c(O)nsc1Nc1ccc(Oc2ccccc2F)c(F)c1` [compound 310]: under setting [1], the IC50 was in the range of 1 to 100 nM.

As to `CCOCCCNC(=N)c1c(O)nsc1Nc1ccc(Oc2ccccc2)cc1` [compound 49], the IC50 under setting [1] is 1 to 100 nM.

For the molecule `N=C(NCc1ccc(C(F)(F)F)cc1)c1c(O)nsc1Nc1ccc(Oc2ccccc2)cc1` [Cpd 21], under setting [1], the IC50 fell in the range of 1 to 100 nM.

For the molecule `N=C(NCc1cccc2ccccc12)c1c(O)nsc1Nc1cc(C(F)(F)F)cc(C(F)(F)F)c1` [compound 68], the IC50 under setting [1] was over 500 nM.

As for `CC(C)NC(=N)c1c(O)nsc1Nc1ccc(-n2cccn2)cc1` [compound 314], the IC50 under setting [1] was over 500 nM.

On to `Cc1ccc(Nc2sncc2C(=N)NC2CCCC2)cc1` [compound 56], for which the IC50 under setting [1] was over 500 nM.

On to `COCCCNc1snc(O)c1C(=N)NCCOc1ccccc1` [compound 112], for which the IC50 under setting [1] is over 500 nM.

Take `N=C(NC1CCCCCC1)c1c(O)nsc1Nc1ccc(Oc2ccccc2)cc1` [Cpd 23]: under setting [1], the IC50 lay within 1 to 100 nM.

Regarding `CCOC(=O)c1cccc(Nc2snc(O)c2C(=N)NCC(C)O)c1` (stereo not shown) [compound 496], the IC50 under setting [1] is over 500 nM.

On to `N=C(NCCc1cccs1)c1c(O)nsc1Nc1ccc(Oc2ccccc2)cc1` [Cpd 18], for which the IC50 under setting [1] fell in the range of 100 to 500 nM.

`Cc1cccc(C)c1Oc1ccc(Nc2snc(O)c2C(=N)NC(C)C)cc1` [compound 271]: the IC50 under setting [1] was over 500 nM.

Consider `N=C(NCCCO)c1c(O)nsc1NCC1CCCCC1` [compound 125], for which the IC50 under setting [1] was over 500 nM.

As to `CC(CO)NC(=N)c1c(O)nsc1Nc1ccccc1Oc1ccccc1` (stereo not shown) [compound 439], under setting [1], the IC50 is over 500 nM.

As to `COCC(C)NC(=N)c1c(O)nsc1Nc1ccc(Oc2cc(F)cc(F)c2)cc1C` (stereo not shown) [compound 467], the IC50 under setting [1] fell in the range of 1 to 100 nM.

For the origin of these results see patent publication US7652047B2, “Phenylamino isothiazole carboxamidines as MEK inhibitors” (Ardea Biosciences, Inc., priority 2005, dated 2010).
